Assay results: ChEMBL document CHEMBL3044998, “Improgan-like Analgesics: A Family of Compounds Derived From Histamine Anatgonists” (Med Chem Res, 2004)
Activity calls are given as the source filed them. The calls are words filed in the database; no cut-off is given here.

Experiments:
Rattus norvegicus [1] = assay: Antinociceptive activity in icv dosed Rattus norvegicus albino (rat) tus norvegicus Sprague-Dawley (rat) assessed as increase in thermal-stimulus induced tail flick latency after 5 to 10 min; type: functional; details: for Emax: Rattus norvegicus, Sprague-Dawley albino, Tail, central
Rattus norvegicus [2] = assay: Antinociceptive activity in icv dosed Rattus norvegicus albino (rat) tus norvegicus Sprague-Dawley (rat) assessed as maximal increase in paw withdrawal latency after 5 to 10 min by hot plate test; type: functional; details: for Emax: Rattus norvegicus, Sprague-Dawley albino, central
Rattus norvegicus [3] = assay: Antinociceptive activity in Rattus norvegicus albino (rat) tus norvegicus Sprague-Dawley (rat) assessed as increase in thermal-stimulus induced tail flick latency at 20 to 60 ug, icv; type: functional, organism-based; details: TDE = time-dependent effect
Rattus norvegicus [4] = assay: Neurotoxicity in Rattus norvegicus albino (rat) tus norvegicus Sprague-Dawley (rat) assessed as motor impairment at 20 to 60 ug, icv; type: toxicity, organism-based; details: in vivo, icv_or_intrathecal
Rattus norvegicus [5] = assay: Antinociceptive activity in Rattus norvegicus albino (rat) tus norvegicus Sprague-Dawley (rat) assessed as maximal increase in paw withdrawal latency at 20 to 60 ug, icv by hot plate test; type: functional, organism-based; details: TDE = time-dependent effect
Rattus norvegicus [6] = assay: Antinociceptive activity in Rattus norvegicus albino (rat) tus norvegicus Sprague-Dawley (rat) assessed as increase in thermal-stimulus induced tail flick latency at 20 to 60 ug, icv after 30 to 60 min; type: functional, organism-based
Rattus norvegicus [7] = assay: Antinociceptive activity in Rattus norvegicus albino (rat) tus norvegicus Sprague-Dawley (rat) assessed as maximal increase in paw withdrawal latency at 20 to 60 ug, icv after 30 to 60 min by hot plate test; type: functional, organism-based
Rattus norvegicus [8] = assay: Toxicity in Rattus norvegicus albino (rat) tus norvegicus Sprague-Dawley (rat) assessed as behavioral changes at 20 to 60 ug, icv; type: organism-based; details: in vivo, icv_or_intrathecal
Rattus norvegicus [9] = assay: Neurotoxicity in icv dosed Rattus norvegicus albino (rat) tus norvegicus Sprague-Dawley (rat) assessed as motor impairment; type: toxicity, organism-based; details: in vivo, icv_or_intrathecal
Rattus norvegicus [10] = assay: Toxicity in icv dosed Rattus norvegicus albino (rat) tus norvegicus Sprague-Dawley (rat) assessed as behavioral changes; type: organism-based; details: in vivo, icv_or_intrathecal
Rattus norvegicus [11] = assay: Antinociceptive activity in icv dosed Rattus norvegicus albino (rat) tus norvegicus Sprague-Dawley (rat) assessed as increase in thermal-stimulus induced tail flick latency; type: functional, organism-based; details: TDE = time-dependent effect
Rattus norvegicus [12] = assay: Antinociceptive activity in icv dosed Rattus norvegicus albino (rat) tus norvegicus Sprague-Dawley (rat) assessed as maximal increase in paw withdrawal latency by hot plate test; type: functional, organism-based; details: TDE = time-dependent effect
Histamine H3 receptor [13] = biological target: Histamine H3 receptor (Cavia porcellus, UniProt Q9JI35); assay: Binding affinity to histamine H3 receptor in Cavia porcellus (guinea pig) ileum; type: tissue-based
Histamine H3 receptor (Cavia porcellus, UniProt Q9JI35), sequence (Q9JI35 whole entry): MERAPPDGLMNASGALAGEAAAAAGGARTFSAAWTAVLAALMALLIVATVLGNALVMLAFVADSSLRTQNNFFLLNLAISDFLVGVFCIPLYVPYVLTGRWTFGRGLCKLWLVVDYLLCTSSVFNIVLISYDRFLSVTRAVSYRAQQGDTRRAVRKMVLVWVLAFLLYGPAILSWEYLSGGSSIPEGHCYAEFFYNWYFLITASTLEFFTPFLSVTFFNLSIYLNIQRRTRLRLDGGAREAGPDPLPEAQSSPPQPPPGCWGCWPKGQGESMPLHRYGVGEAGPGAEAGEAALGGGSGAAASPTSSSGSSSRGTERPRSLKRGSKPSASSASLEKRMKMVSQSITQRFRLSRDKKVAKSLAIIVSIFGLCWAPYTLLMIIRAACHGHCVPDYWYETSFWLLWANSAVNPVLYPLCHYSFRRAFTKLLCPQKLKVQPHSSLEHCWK

Histamine H2 receptor = Histamine H2 receptor (Homo sapiens, UniProt P25021); assay: Binding affinity to histamine H2 receptor (unknown origin)
Histamine H2 receptor, sequence (P25021 whole entry): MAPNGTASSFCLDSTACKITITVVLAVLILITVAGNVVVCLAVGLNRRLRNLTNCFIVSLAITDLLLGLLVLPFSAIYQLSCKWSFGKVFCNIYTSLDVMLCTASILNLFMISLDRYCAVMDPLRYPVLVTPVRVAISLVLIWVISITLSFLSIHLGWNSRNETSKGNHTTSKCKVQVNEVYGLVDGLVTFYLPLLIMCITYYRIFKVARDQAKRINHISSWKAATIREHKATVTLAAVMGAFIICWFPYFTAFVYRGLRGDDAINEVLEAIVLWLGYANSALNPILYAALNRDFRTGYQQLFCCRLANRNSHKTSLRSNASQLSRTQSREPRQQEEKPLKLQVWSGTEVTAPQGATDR

Histamine H3 receptor [14] = biological target: Histamine H3 receptor (Homo sapiens, UniProt Q9Y5N1); assay: Binding affinity to histamine H3 receptor (unknown origin)
Histamine H3 receptor (Homo sapiens, UniProt Q9Y5N1), sequence (Q9Y5N1 whole entry): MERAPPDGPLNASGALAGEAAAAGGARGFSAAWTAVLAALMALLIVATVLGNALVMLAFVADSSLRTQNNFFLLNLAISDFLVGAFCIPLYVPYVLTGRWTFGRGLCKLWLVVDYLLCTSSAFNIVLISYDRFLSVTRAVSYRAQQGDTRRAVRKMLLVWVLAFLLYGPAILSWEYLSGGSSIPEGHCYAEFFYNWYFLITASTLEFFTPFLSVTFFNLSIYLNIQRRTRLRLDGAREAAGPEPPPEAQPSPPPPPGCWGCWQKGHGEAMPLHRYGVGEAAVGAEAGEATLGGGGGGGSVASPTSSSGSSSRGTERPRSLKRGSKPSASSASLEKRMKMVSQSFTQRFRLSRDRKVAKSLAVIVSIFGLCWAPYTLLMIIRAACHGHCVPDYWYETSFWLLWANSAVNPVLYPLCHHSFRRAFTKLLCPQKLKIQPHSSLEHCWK

Structure (SMILES): c1cc(CN2CCCCC2)cc(OCCCNc2nc3ccccc3s2)c1 [ZOLANTIDINE]
- ED50 (Rattus norvegicus [1]): >262 nmol
- ED50 (Rattus norvegicus [2]): >262 nmol

Structure (SMILES): S=C(NCCCCc1c[nH]cn1)Nc1ccccc1
- ED50 (Rattus norvegicus [1]): 81 nmol
- ED50 (Rattus norvegicus [2]): 81 nmol

Structure (SMILES): S=C(Nc1ccccc1)N1CCC(c2c[nH]cn2)CC1
- Emax (Rattus norvegicus [1]): < 100%
- Emax (Rattus norvegicus [2]): < 100%

Structure (SMILES): c1ccc(NCCCOc2cccc(CN3CCCCC3)c2)cc1 [SKF95299]
- ED50 (Rattus norvegicus [1]): >308 nmol
- ED50 (Rattus norvegicus [2]): >308 nmol

Structure (SMILES): CN/C(=N\C#N)NCCSCc1ccc(CN(C)C)o1
- Activity (Rattus norvegicus [3]): tde
- Activity (Rattus norvegicus [4]): Non-toxic
- Activity (Rattus norvegicus [5]): tde
- Activity (Rattus norvegicus [1]): Dose-dependent effect
- ED50 (Rattus norvegicus [1]): 67 nmol
- Activity (Rattus norvegicus [2]): Dose-dependent effect
- ED50 (Rattus norvegicus [2]): 67 nmol
- Activity (Rattus norvegicus [6]): inactive
- Activity (Rattus norvegicus [7]): inactive
- Activity (Rattus norvegicus [8]): Non-toxic

Structure (SMILES): S=C(NCCc1c[nH]cn1)Nc1ccccc1
- ED50 (Rattus norvegicus [1]): 89 nmol
- ED50 (Rattus norvegicus [2]): 89 nmol

Structure (SMILES): C/N=C(\S)NCCc1c[nH]cn1
- ED50 (Rattus norvegicus [1]): 85 nmol
- ED50 (Rattus norvegicus [2]): 85 nmol

Structure (SMILES): NC(=NCc1ccc(Cl)cc1)SCCCc1cnc[nH]1 [CLOBENPROPIT]
- Activity (Rattus norvegicus [9]): Non-toxic
- Activity (Rattus norvegicus [10]): Non-toxic

Structure (SMILES): S=C(NC1CCCCC1)N1CCC(c2cnc[nH]2)CC1 [THIOPERAMIDE]
- ED50 (Rattus norvegicus [1]): >342 nmol
- ED50 (Rattus norvegicus [2]): >342 nmol

Structure (SMILES): C/N=C(\S)NCCCCc1c[nH]cn1 [BURIMAMIDE]
- Activity (Rattus norvegicus [11]): tde
- Activity (Rattus norvegicus [1]): Dose-dependent effect
- ED50 (Rattus norvegicus [1]): 184 nmol
- Activity (Rattus norvegicus [2]): Dose-dependent effect
- ED50 (Rattus norvegicus [2]): 184 nmol
- Activity (Rattus norvegicus [12]): tde

Structure (SMILES): C/N=C(\S)NCCCn1ccnc1
- ED50 (Rattus norvegicus [1]): >504 nmol
- ED50 (Rattus norvegicus [2]): >504 nmol

Structure (SMILES): CN/C(=N/CCSCc1nc[nH]c1C)NC#N [CIMETIDINE]
- Activity (Rattus norvegicus [9]): Non-toxic
- Activity (Rattus norvegicus [10]): Non-toxic

Structure (SMILES): S=C(NCCCCc1c[nH]cn1)NC1CCCCC1
- ED50 (Rattus norvegicus [1]): 285 nmol
- ED50 (Rattus norvegicus [2]): 285 nmol

Structure (SMILES): CN/C(=C\[N+](=O)[O-])NCCCCc1c[nH]cn1
- ED50 (Rattus norvegicus [1]): 104 nmol
- ED50 (Rattus norvegicus [2]): 104 nmol

Structure (SMILES): S=C(NCCCCCCc1c[nH]cn1)Nc1ccccc1
- Emax (Rattus norvegicus [1]): < 100%
- Emax (Rattus norvegicus [2]): < 100%

Structure (SMILES): CNC(=C[N+](=O)[O-])NCCSCc1ccc(CN(C)C)o1 [RANITIDINE]
- ED50 (Rattus norvegicus [1]): 109 nmol
- ED50 (Rattus norvegicus [2]): 109 nmol

Structure (SMILES): CN/C(=N\C#N)NCCSCc1ccccc1
- ED50 (Rattus norvegicus [1]): >403 nmol
- ED50 (Rattus norvegicus [2]): >403 nmol

Structure (SMILES): CN/C(=N\C#N)NCCCc1c[nH]cn1 [IMPROGAN]
- Activity (Rattus norvegicus [11]): tde
- Activity (Rattus norvegicus [9]): Non-toxic
- Activity (Rattus norvegicus [1]): Dose-dependent effect
- ED50 (Rattus norvegicus [1]): 330 nmol
- Activity (Rattus norvegicus [2]): Dose-dependent effect
- ED50 (Rattus norvegicus [2]): 330 nmol
- Activity (Rattus norvegicus [10]): Non-toxic
- Activity (Rattus norvegicus [12]): tde
- Kd (Histamine H3 receptor [13]): 5 µM

Structure (SMILES): C/N=C(\S)NCCCc1c[nH]cn1 [NORBURIMAMIDE]
- ED50 (Rattus norvegicus [1]): 217 nmol
- ED50 (Rattus norvegicus [2]): 217 nmol

Structure (SMILES): C/N=C(/NC#N)NCCSCc1csc(NC(=N)N)n1 [TIOTIDINE]
- ED50 (Rattus norvegicus [1]): >320 nmol
- ED50 (Rattus norvegicus [2]): >320 nmol

Structure (SMILES): CNC(=S)NCCSCc1[nH]cnc1C [METIAMIDE]
- ED50 (Rattus norvegicus [1]): 370 nmol
- ED50 (Rattus norvegicus [2]): 370 nmol

Structure (SMILES): CNC(=S)NCCSCc1ccc(CN(C)C)o1
- Activity (Rattus norvegicus [11]): tde
- Activity (Rattus norvegicus [9]): Non-toxic
- ED50 (Rattus norvegicus [1]): 117 nmol
- ED50 (Rattus norvegicus [2]): 117 nmol
- Activity (Rattus norvegicus [10]): Non-toxic
- Activity (Rattus norvegicus [12]): tde

Structure (SMILES): O=C(NCCCCc1c[nH]cn1)Nc1ccccc1
- ED50 (Rattus norvegicus [1]): 65 nmol
- ED50 (Rattus norvegicus [2]): 65 nmol

Structure (SMILES): CN/C(=N\C#N)NCCSCc1ccccn1
- ED50 (Rattus norvegicus [1]): >602 nmol
- ED50 (Rattus norvegicus [2]): >602 nmol

Structure (SMILES): CNC(=S)NCCCCc1cnc[nH]1 [BURIMAMIDE]
- Kd (Histamine H2 receptor): 7.8 µM
- Kd (Histamine H3 receptor [14]): 0.1 µM
- Activity (Rattus norvegicus [9]): Non-toxic
- Activity (Rattus norvegicus [10]): Non-toxic

Structure (SMILES): S=C(NCCCCc1c[nH]cn1)NCCc1ccccc1
- ED50 (Rattus norvegicus [1]): 80 nmol
- ED50 (Rattus norvegicus [2]): 80 nmol

Structure (SMILES): CN/C(=C/[N+](=O)[O-])NCCCn1ccnc1
- Activity (Rattus norvegicus [9]): Non-toxic
- Activity (Rattus norvegicus [10]): Non-toxic

Structure (SMILES): CN/C(=N\CCSCc1nc[nH]c1C)NC#N [CIMETIDINE]
- Activity (Rattus norvegicus [11]): tde
- Activity (Rattus norvegicus [1]): Dose-dependent effect
- ED50 (Rattus norvegicus [1]): 464 nmol
- Activity (Rattus norvegicus [2]): Dose-dependent effect
- ED50 (Rattus norvegicus [2]): 464 nmol
- Activity (Rattus norvegicus [12]): tde

Structure (SMILES): CNC(=S)N1CCC(c2c[nH]cn2)CC1
- ED50 (Rattus norvegicus [1]): 201 nmol
- ED50 (Rattus norvegicus [2]): 201 nmol

Structure (SMILES): C/N=C(\S)NCCCCCCc1c[nH]cn1
- ED50 (Rattus norvegicus [1]): 87 nmol
- ED50 (Rattus norvegicus [2]): 87 nmol

Structure (SMILES): S=C(NCCCCc1c[nH]cn1)NCc1ccccc1
- ED50 (Rattus norvegicus [1]): 105 nmol
- ED50 (Rattus norvegicus [2]): 105 nmol
